According to ChEMBL document CHEMBL5055685, “Discovery of the First Potent IDO1/IDO2 Dual Inhibitors: A Promising Strategy for Cancer Immunotherapy” (J Med Chem, 2021):
Activity calls are given as the source filed them.

How the values were obtained:
[1] = tested on: CT26; test: Cytotoxicity against mouse CT26 cells assessed as reduction in cell viability by CCK8 assay; format: functional, cell-based
[2] = tested on: HCT-116; test: Cytotoxicity against human HCT-116 cells assessed as reduction in cell viability by CCK8 assay; format: functional, cell-based
[3] = Half life in human liver microsomes; format: ADME, Microsome
[4] = Metabolic stability in dog liver microsomes assessed as rate constant; format: ADME, Canis lupus familiaris, Microsome
[5] = Efflux ratio of apparent permeability across basolateral to apical over apical to basolateral side in human Caco-2 cells; format: ADME, cell-based
[6] = Protein binding in human plasma by equilibrium dialysis; format: ADME, cell-free; conditions: read-out: PPB (converted)
[7] = Protein binding in ICR mouse plasma assessed as fraction unbound by equilibrium dialysis; format: ADME, cell-free
[8] = biological target: Voltage-gated inwardly rectifying potassium channel KCNH2 (Homo sapiens, UniProt Q12809); test: Inhibition of human ERG
[9] = tested on: HCT-116; test: Antitumor activity against human HCT-116 cells xenografted in BALB/c nude mouse assessed as tumor growth inhibition at 100 to 300 mg/kg, ig bid for 21 days by vernier caliper method; format: functional, organism-based; conditions: dose 100-300 mg/kg, time 21.0 day
[10] = tested on: HCT-116; test: Antitumor immunity in BALB/c mouse xenografted with human HCT-116 cells assessed as increase in IL-2 in serum by […]; format: functional, cell-based
[11] = biological target: Tyrosine-protein kinase ABL2 (Homo sapiens) (UniProt P42684); test: Inhibition of ABL2 (unknown origin) at 1 uM
[12] = biological target: Serine/threonine-protein kinase A-Raf (Homo sapiens) (UniProt P10398); test: Inhibition of ARAF (unknown origin) at 1 uM
[13] = biological target: Mast/stem cell growth factor receptor Kit (Homo sapiens) (UniProt P10721); test: Inhibition of c-KIT (unknown origin) at 1 uM
Chain of Mast/stem cell growth factor receptor Kit (Homo sapiens) (P10721 whole entry): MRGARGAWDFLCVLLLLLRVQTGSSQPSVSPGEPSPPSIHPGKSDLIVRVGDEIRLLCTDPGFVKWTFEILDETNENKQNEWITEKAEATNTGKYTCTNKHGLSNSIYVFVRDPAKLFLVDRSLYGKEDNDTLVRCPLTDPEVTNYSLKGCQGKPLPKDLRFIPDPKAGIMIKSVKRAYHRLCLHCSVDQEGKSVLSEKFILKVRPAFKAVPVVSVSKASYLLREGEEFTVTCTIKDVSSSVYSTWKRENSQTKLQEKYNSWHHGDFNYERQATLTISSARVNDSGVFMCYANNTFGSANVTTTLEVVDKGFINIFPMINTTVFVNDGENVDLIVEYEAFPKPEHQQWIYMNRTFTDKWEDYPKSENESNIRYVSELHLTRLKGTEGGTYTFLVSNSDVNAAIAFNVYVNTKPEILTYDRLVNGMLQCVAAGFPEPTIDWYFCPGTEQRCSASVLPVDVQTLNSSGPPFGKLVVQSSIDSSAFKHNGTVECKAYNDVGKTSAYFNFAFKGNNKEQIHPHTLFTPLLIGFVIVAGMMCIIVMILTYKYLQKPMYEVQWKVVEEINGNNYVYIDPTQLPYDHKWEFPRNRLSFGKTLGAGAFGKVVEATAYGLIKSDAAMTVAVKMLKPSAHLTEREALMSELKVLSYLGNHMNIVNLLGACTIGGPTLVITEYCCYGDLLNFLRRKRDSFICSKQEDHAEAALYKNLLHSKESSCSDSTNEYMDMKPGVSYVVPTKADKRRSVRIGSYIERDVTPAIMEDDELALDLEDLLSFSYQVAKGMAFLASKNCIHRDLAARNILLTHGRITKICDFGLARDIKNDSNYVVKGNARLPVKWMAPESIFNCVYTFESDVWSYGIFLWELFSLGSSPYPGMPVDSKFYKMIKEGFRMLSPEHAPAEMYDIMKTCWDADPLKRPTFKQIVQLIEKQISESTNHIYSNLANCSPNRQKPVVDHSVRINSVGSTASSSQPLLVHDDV

[14] = biological target: Tyrosine-protein kinase Mer (Homo sapiens) (UniProt Q12866); test: Inhibition of c-MER (unknown origin) at 1 uM
[15] = biological target: Calcium/calmodulin-dependent protein kinase type 1D (Homo sapiens) (UniProt Q8IU85); test: Inhibition of CAMK1D (unknown origin) at 1 uM
[16] = biological target: Cyclin-dependent kinase 1/cyclin B1 (Homo sapiens) (UniProt P06493+P14635); test: Inhibition of CDK1/cyclinB (unknown origin) at 1 uM; format: protein-complex assay
Chain of Cyclin-dependent kinase 1/cyclin B1 (Homo sapiens) (P06493 whole entry, looked up): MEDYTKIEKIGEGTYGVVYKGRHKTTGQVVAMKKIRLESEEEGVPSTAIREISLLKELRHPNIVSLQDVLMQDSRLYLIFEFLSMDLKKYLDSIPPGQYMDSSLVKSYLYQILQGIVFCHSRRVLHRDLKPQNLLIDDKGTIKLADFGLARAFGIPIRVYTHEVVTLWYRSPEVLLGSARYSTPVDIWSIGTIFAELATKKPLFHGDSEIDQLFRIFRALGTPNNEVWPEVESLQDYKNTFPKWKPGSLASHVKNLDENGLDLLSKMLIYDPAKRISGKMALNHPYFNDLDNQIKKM
Chain of Cyclin-dependent kinase 1/cyclin B1 (Homo sapiens) (P14635 whole entry, looked up): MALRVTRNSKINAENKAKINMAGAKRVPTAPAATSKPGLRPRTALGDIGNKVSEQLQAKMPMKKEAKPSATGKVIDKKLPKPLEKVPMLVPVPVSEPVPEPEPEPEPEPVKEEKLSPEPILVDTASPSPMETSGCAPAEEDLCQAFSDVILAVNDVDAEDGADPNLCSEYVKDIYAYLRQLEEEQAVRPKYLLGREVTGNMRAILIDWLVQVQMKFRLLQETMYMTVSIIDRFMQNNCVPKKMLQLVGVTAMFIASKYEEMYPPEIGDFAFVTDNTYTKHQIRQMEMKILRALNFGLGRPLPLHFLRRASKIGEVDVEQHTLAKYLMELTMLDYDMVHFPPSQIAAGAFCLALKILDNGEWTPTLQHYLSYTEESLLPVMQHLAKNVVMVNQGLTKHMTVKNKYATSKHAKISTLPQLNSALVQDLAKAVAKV

[17] = biological target: Dual specificity protein kinase CLK1 (Homo sapiens) (UniProt P49759); test: Inhibition of CLK1 (unknown origin) at 1 uM
[18] = biological target: Dual specificity protein kinase CLK4 (Homo sapiens) (UniProt Q9HAZ1); test: Inhibition of CLK4 (unknown origin) at 1 uM
[19] = biological target: Dual specificity tyrosine-phosphorylation-regulated kinase 4 (Homo sapiens) (UniProt Q9NR20); test: Inhibition of DYRK4 (unknown origin) at 1 uM
[20] = biological target: Ephrin type-A receptor 4 (Homo sapiens) (UniProt P54764); test: Inhibition of EPHA4 (unknown origin) at 1 uM
[21] = biological target: Tyrosine-protein kinase Fgr (Homo sapiens) (UniProt P09769); test: Inhibition of FGR (unknown origin) at 1 uM
Chain of Tyrosine-protein kinase Fgr (Homo sapiens) (P09769 2-529 limits assumed): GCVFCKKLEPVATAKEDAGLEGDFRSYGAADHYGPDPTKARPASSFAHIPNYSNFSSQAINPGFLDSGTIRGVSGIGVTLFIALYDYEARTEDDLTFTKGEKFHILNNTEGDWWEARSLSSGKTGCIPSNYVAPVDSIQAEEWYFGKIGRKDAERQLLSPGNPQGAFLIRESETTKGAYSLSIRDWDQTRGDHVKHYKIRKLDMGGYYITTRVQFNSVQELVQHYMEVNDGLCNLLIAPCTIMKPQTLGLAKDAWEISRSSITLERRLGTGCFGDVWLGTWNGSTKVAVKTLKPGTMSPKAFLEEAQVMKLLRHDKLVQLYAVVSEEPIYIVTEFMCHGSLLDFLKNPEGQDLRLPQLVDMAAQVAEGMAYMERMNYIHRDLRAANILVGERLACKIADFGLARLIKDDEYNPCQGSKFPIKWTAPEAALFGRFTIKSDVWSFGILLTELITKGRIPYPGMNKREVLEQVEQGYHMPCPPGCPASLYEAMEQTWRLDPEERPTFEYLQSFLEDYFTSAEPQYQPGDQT

[22] = biological target: Mitogen-activated protein kinase kinase kinase kinase 1 (Homo sapiens) (UniProt Q92918); test: Inhibition of HPK1 (unknown origin) at 1 uM
[23] = biological target: Mitogen-activated protein kinase 8 (Homo sapiens) (UniProt P45983); test: Inhibition of JNK1 (unknown origin) at 1 uM
[24] = biological target: Dual specificity mitogen-activated protein kinase kinase 4 (Homo sapiens) (UniProt P45985); test: Inhibition of MKK4 (unknown origin) at 1 uM
Chain of Dual specificity mitogen-activated protein kinase kinase 4 (Homo sapiens) (P45985 whole entry): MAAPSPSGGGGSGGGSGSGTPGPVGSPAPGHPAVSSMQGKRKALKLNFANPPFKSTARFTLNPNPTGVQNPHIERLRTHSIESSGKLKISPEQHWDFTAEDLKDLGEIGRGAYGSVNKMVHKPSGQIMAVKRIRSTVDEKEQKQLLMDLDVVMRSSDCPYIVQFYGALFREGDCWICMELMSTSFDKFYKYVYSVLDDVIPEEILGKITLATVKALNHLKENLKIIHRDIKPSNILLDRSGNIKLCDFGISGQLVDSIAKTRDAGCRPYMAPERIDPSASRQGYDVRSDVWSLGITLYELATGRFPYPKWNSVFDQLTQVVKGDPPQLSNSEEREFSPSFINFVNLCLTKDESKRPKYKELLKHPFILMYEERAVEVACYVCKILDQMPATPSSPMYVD

[25] = species on record: Homo sapiens; test: Inhibition of MLCK (unknown origin) at 1 uM
[26] = biological target: Mitogen-activated protein kinase kinase kinase 11 (Homo sapiens) (UniProt Q16584); test: Inhibition of MLK3 (unknown origin) at 1 uM
[27] = biological target: Serine/threonine-protein kinase Nek5 (Homo sapiens) (UniProt Q6P3R8); test: Inhibition of NEK5 (unknown origin) at 1 uM
[28] = biological target: Lymphokine-activated killer T-cell-originated protein kinase (Homo sapiens) (UniProt Q96KB5); test: Inhibition of PBK (unknown origin) at 1 uM
[29] = biological target: Platelet-derived growth factor receptor alpha (Homo sapiens) (UniProt P16234); test: Inhibition of PDGFRalpha (unknown origin) at 1 uM
[30] = biological target: Protein kinase C beta type (Homo sapiens) (UniProt P05771); test: Inhibition of PKCb1 (unknown origin) at 1 uM
[31] = biological target: Protein kinase C eta type (Homo sapiens) (UniProt P24723); test: Inhibition of PKCeta (unknown origin)at 1 uM
[32] = biological target: Protein kinase C zeta type (Homo sapiens) (UniProt Q05513); test: Inhibition of PKCzeta (unknown origin) at 1 uM
[33] = biological target: Serine/threonine-protein kinase PLK4 (Homo sapiens) (UniProt O00444); test: Inhibition of PLK4 (unknown origin) at 1 uM
[34] = biological target: SRSF protein kinase 1 (Homo sapiens) (UniProt Q96SB4); test: Inhibition of SRPK1 (unknown origin) at 1 uM
[35] = biological target: Serine/threonine-protein kinase 16 (Homo sapiens) (UniProt O75716); test: Inhibition of STK16 (unknown origin) at 1 uM
[36] = biological target: Serine/threonine-protein kinase 25 (Homo sapiens) (UniProt O00506); test: Inhibition of STK25 (unknown origin) at 1 uM
[37] = biological target: TRAF2 and NCK-interacting protein kinase (Homo sapiens) (UniProt Q9UKE5); test: Inhibition of TNIK (unknown origin) at 1 uM
[38] = biological target: BDNF/NT-3 growth factors receptor (Homo sapiens) (UniProt Q16620); test: Inhibition of TRKB (unknown origin) at 1 uM
[39] = biological target: Serine/threonine-protein kinase ULK2 (Homo sapiens) (UniProt Q8IYT8); test: Inhibition of ULK2 (unknown origin) at 1 uM
Chain of Serine/threonine-protein kinase ULK2 (Homo sapiens) (Q8IYT8 whole entry): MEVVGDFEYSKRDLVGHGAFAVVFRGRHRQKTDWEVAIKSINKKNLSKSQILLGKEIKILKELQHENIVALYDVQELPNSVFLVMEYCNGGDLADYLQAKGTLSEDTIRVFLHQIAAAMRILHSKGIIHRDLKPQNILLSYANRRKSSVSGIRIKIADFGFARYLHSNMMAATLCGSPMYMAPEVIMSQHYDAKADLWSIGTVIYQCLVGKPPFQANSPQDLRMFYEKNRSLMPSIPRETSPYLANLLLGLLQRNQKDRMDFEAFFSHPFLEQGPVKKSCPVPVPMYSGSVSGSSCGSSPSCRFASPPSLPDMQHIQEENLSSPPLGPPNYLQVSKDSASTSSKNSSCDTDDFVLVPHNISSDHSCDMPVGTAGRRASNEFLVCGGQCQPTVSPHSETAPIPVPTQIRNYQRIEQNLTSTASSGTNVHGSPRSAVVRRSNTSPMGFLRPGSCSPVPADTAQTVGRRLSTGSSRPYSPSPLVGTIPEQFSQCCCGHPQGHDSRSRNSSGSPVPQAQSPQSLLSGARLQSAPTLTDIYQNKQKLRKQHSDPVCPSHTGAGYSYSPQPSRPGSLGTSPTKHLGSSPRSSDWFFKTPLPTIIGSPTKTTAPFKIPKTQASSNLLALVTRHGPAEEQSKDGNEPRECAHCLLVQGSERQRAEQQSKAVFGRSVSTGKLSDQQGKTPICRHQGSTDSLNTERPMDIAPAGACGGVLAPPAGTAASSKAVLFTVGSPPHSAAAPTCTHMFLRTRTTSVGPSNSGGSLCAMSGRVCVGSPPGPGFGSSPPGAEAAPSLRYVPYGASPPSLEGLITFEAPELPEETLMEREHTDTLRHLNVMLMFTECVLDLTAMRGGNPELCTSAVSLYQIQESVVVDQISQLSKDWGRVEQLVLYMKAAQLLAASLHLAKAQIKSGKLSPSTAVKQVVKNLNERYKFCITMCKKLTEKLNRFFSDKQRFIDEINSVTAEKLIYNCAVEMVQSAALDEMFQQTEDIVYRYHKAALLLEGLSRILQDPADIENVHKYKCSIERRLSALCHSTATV

[40] = biological target: Serine/threonine-protein kinase ULK3 (Homo sapiens) (UniProt Q6PHR2); test: Inhibition of ULK3 (unknown origin) at 1 uM
Chain of Serine/threonine-protein kinase ULK3 (Homo sapiens) (Q6PHR2 whole entry): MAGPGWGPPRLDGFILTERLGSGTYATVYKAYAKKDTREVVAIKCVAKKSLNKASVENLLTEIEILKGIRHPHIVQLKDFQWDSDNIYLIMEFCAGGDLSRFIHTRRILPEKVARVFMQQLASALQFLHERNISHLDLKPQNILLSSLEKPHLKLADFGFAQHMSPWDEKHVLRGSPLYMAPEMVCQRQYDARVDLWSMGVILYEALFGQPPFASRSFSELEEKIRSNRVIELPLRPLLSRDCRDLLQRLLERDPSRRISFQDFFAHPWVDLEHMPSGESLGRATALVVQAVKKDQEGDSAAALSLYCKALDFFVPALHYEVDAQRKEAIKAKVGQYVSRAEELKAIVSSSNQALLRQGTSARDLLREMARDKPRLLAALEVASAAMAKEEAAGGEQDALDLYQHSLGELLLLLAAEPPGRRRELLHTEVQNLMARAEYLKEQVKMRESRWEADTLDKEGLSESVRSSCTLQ

[41] = biological target: Wee1-like protein kinase (Homo sapiens) (UniProt P30291); test: Inhibition of WEE1 (unknown origin) at 1 uM
[42] = biological target: Tyrosine-protein kinase Yes (Homo sapiens) (UniProt P07947); test: Inhibition of YES (unknown origin) at 1 uM
[43] = biological target: Mitogen-activated protein kinase kinase kinase 20 (Homo sapiens) (UniProt Q9NYL2); test: Inhibition of ZAK (unknown origin) at 1 uM
Chain of Mitogen-activated protein kinase kinase kinase 20 (Homo sapiens) (Q9NYL2 2-800 limits assumed): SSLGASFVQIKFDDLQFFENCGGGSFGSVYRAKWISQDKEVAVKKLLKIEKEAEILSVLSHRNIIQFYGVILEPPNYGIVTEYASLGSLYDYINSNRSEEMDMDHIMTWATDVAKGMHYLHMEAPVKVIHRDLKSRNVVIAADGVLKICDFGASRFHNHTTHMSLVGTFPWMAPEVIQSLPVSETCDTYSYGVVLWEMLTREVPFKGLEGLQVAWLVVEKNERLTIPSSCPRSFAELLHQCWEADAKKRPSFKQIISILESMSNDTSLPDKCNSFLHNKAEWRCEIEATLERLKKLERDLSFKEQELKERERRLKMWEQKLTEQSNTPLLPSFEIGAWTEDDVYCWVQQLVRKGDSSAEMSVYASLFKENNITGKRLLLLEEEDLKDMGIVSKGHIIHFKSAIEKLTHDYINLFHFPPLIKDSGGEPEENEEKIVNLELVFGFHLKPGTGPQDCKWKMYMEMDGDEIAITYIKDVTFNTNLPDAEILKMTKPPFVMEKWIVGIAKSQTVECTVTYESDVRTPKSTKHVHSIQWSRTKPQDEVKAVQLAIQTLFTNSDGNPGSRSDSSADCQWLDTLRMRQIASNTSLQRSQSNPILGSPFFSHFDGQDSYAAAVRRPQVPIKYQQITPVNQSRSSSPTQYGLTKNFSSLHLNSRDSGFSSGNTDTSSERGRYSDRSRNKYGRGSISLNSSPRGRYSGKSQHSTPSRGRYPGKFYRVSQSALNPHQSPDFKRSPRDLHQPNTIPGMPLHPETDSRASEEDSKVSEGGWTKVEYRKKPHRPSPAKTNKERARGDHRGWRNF

OCCOCc1cn(CCNc2nonc2/C(=N/O)Nc2ccc(F)c(Br)c2)nn1
inactive: Activity [9] | inhibition [11] | inhibition [12] | inhibition [13] | inhibition [14] | inhibition [15] | inhibition [16] | inhibition [17] | inhibition [18] | inhibition [19] | inhibition [20] | inhibition [21] | inhibition [22] | inhibition [23] | inhibition [24] | inhibition [25] | inhibition [26] | inhibition [27] | inhibition [28] | inhibition [29] | inhibition [30] | inhibition [31] | inhibition [32] | inhibition [33] | inhibition [34] | inhibition [35] | inhibition [36] | inhibition [37] | inhibition [38] | inhibition [39] | inhibition [40] | inhibition [41] | inhibition [42] | inhibition [43]
46.1 min: half-life [3]
0.0968: fraction unbound [7]
> 30 µM: IC50 [8]
0.00205 s⁻¹: k el [4]
0.0411: fraction unbound [6]
62 µM: IC50 [1]
6.4: efflux ratio [5]
active: Activity [10]
56.1 µM: IC50 [2]
